Data as given in patent US9499553B2 (CHUGAI SEIYAKU KABUSHIKI KAISHA, priority 2013, dated 2016).

What was measured:
human NaPi-IIb = target: T1, human NaPi-IIb (Homo sapiens, UniProt O95436); assay: Inhibitory effect on 33PO4 uptake into human NaPi-IIb-expressing CHO cells; type: cell-based; settings: read-out: IC50
T1 construct: expressed in transfected cells
T1 sequence (O95436 1-690): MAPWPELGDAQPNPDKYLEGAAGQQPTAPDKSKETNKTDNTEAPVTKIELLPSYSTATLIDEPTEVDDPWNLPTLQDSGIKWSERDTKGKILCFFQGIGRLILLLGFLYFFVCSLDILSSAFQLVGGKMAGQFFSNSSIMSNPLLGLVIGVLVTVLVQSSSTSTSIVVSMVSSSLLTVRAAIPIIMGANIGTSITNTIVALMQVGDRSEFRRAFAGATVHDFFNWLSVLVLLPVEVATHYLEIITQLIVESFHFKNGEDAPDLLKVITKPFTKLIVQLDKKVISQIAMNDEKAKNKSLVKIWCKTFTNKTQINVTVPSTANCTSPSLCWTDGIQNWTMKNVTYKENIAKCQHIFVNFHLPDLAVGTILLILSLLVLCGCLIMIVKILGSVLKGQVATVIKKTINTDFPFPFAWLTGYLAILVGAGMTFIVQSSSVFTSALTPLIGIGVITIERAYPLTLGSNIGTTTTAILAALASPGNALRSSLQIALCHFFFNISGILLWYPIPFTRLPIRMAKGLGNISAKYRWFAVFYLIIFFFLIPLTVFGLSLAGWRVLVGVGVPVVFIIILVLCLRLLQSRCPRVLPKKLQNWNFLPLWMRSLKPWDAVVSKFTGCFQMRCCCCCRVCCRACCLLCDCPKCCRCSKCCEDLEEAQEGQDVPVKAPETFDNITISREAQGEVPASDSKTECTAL
Summary of the method: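 Uptake of ³³PO4 was measured by scintillation counting after ice-cold buffer A washes. Cells were CHO stably expressing human NaPi-IIb, seeded overnight, and exposed to ³³PO4 in buffer A at room temperature.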

human PiT-1 = target: T2, human PiT-1 (Homo sapiens, UniProt Q8WUM9); assay: Inhibitory effect on 33PO4 uptake into human PiT-1-expressing CHO cells; type: cell-based; settings: compound 0.24, 1.2, 6 or 30 μM, pH 6.5, read-out: IC50 against 33PO4 uptake into human PiT-1-expressing cells
T2 construct: expressed in transfected cells; host or cells: CHO cells
T2 sequence (Q8WUM9 1-679): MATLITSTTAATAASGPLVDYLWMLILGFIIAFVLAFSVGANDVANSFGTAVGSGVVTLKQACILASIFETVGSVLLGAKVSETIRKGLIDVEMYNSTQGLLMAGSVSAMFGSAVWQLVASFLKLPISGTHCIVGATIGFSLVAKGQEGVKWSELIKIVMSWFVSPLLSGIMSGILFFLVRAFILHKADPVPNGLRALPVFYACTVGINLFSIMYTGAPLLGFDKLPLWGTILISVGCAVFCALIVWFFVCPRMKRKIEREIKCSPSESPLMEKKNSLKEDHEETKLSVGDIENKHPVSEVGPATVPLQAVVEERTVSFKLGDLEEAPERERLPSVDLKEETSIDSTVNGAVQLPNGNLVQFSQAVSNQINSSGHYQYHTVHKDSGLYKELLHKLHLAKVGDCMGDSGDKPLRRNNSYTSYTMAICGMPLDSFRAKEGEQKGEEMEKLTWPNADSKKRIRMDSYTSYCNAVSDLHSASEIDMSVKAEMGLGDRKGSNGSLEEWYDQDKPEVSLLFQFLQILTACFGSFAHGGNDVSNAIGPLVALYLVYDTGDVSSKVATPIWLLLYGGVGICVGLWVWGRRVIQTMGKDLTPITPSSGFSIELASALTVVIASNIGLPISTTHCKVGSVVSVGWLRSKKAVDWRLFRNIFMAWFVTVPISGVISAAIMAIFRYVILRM
Summary of the method: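 CHO cells transiently transfected with human PiT-1 or empty vector were exposed to compound, then to 33PO4 at room temperature and washed ice-cold; uptake counted by scintillation. Inhibition computed on PiT-1-specific uptake (PiT-1 minus vector cells) relative to DMSO wells.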

How did the IC50 (human NaPi-IIb) turn out when `COCCN(C)CCOc1ccc(CN2C(=O)C(C(=O)Nc3ccc(C(F)(F)F)cc3-c3cc(C(F)(F)F)ncn3)=C(O)C3(CCCC3)N2C)c(F)c1F` [Example 14, 7-[[2,3-Difluoro-4-[2-[2-methoxyethyl(methyl)amino]ethoxy]phenyl]methyl]-10-hydroxy-6-methyl-8-oxo-N-[4-(trifluoromethyl)-2-[6-(trifluoromethyl)pyrimidin-4-yl]phenyl]-6,7-diazaspiro[4.5]dec-9-ene-9-carboxamide] was run?
The IC50 was 8.9 µM.

And the IC50 (human PiT-1)?
Its IC50 is 2.2 µM.
